Reference: PMC5474674, “D-BMAP18 Antimicrobial Peptide Is Active In vitro, Resists to Pulmonary Proteases but Loses Its Activity in a Murine Model of Pseudomonas aeruginosa Lung Infection” (Frontiers in Chemistry, 2017)
Converted amounts (≈) assume the structure as drawn. Where a SMILES comes first, the peptide text is derived from it. [ ]: non-standard residue; d: D form.

What was measured:
S. aureus SA1 = conditions: D-BMAP18; strain SA1; broth microdilution, MH broth, 37°C 24 h; n = 6
S. maltophilia = assay type: cell-based, Stenotrophomonas maltophilia; conditions: 24 h
Description: P. aeruginosa, S. maltophilia, and Staphylococcus aureus strains were originally isolated from respiratory specimens of CF patients admitted to the “Bambino Gesù” Children Hospital in Rome and previously tested with AMPs (Pompilio et al., [2012]). P. aeruginosa RP73, and PAO1 were tested as reference strains.
(§1) MIC values were determined using the broth microdilution method.

S. aureus SA5 = assay: MIC broth microdilution; assay type: cell-based, Staphylococcus aureus; conditions: D-BMAP18, strain SA5, MH broth, 37°C 24 h, n = 6
Description: as §1

S. aureus SA7 = assay: MIC broth microdilution; assay type: cell-based, Staphylococcus aureus; conditions: D-BMAP18, strain SA7, MH broth, 37°C 24 h, n = 6
Description: as §1

S. aureus SA3 = assay: MIC broth microdilution; assay type: cell-based, Staphylococcus aureus; conditions: D-BMAP18, strain SA3, MH broth, 37°C 24 h, n = 6
Description: as §1

S. aureus SA4 = assay: MIC broth microdilution; assay type: cell-based, Staphylococcus aureus; conditions: D-BMAP18, strain SA4, MH broth, 37°C 24 h, n = 6
Description: as §1

S. aureus SA2 = conditions: D-BMAP18; strain SA2; broth microdilution, MH broth, 37°C 24 h; n = 6
P. aeruginosa RP73 [1] = assay type: in vivo, mouse; conditions: mouse, in vivo
Description: C57/Bl6NCrl mice (n = 8/group) were intratracheally challenged with 1 × 10^7 cells P. aeruginosa RP73 clinical strain, and 5 min later a single dose of D-BMAP18 at different concentrations (0.5, 1, and 2 mg/kg) was intratracheally administrated. Sterile distilled water alone or tobramycin [10 mg/kg] (Sigma-Aldrich S.r.l.), were used respectively as negative and positive control. […] Subsequently, lungs were homogenized (24,000 rpm) on ice in 1 ml of sterile PBS by using Ultra-Turrax T25-Basic homogenizer (IKA-Werke GmbH & Co. KG, Germany). Ten-fold serial dilutions of lung homogenates were plated on MH agar (Oxoid SpA), and the number of colony-forming units (CFU) was counted after incubation at 37°C for 24 h.

P. aeruginosa PA14 = assay: MIC/MBC broth microdilution; assay type: cell-based, Pseudomonas aeruginosa; conditions: D-BMAP18, strain PA14, n = 6
Description: as §1

P. aeruginosa PA03 = assay: MIC/MBC broth microdilution; assay type: cell-based, Pseudomonas aeruginosa; conditions: D-BMAP18, strain PA03, n = 6
Description: as §1

P. aeruginosa PA08 = assay: MIC/MBC broth microdilution; assay type: cell-based, Pseudomonas aeruginosa; conditions: D-BMAP18, strain PA08, n = 6
Description: as §1

P. aeruginosa PA21 = assay: MIC/MBC broth microdilution; assay type: cell-based, Pseudomonas aeruginosa; conditions: D-BMAP18, strain PA21, n = 6
Description: as §1

P. aeruginosa RP73 [2] = assay: MIC/MBC broth microdilution; assay type: cell-based, Pseudomonas aeruginosa; conditions: D-BMAP18, strain RP73, n = 6
Description: as §1

P. aeruginosa PA22 = assay: MIC/MBC broth microdilution; assay type: cell-based, Pseudomonas aeruginosa; conditions: D-BMAP18, strain PA22, n = 6
Description: as §1

P. aeruginosa PA09 = assay: MIC/MBC broth microdilution; assay type: cell-based, Pseudomonas aeruginosa; conditions: D-BMAP18, strain PA09, n = 6
Description: as §1

P. aeruginosa PA31 = assay: MIC/MBC broth microdilution; assay type: cell-based, Pseudomonas aeruginosa; conditions: D-BMAP18, strain PA31, n = 6
Description: as §1

P. aeruginosa PA01 = assay: MIC/MBC broth microdilution; assay type: cell-based, Pseudomonas aeruginosa; conditions: D-BMAP18, strain PA01, n = 6
Description: as §1

P. aeruginosa PA05 = assay: MIC/MBC broth microdilution; assay type: cell-based, Pseudomonas aeruginosa; conditions: D-BMAP18, strain PA05, n = 6
Description: as §1

P. aeruginosa PA07 = assay: MIC/MBC broth microdilution; assay type: cell-based, Pseudomonas aeruginosa; conditions: D-BMAP18, strain PA07, n = 6
Description: as §1

P. aeruginosa PA10 = assay: MIC/MBC broth microdilution; assay type: cell-based, Pseudomonas aeruginosa; conditions: D-BMAP18, strain PA10, n = 6
Description: as §1

[3] = broth microdilution, MH broth, 37°C 24 h
[4] = kills at least 99.9% of inoculum

In the case of `CC(C)C[C@@H](NC(=O)[C@@H](CCCCN)NC(=O)[C@@H](CCCCN)NC(=O)[C@@H](Cc1ccccc1)NC(=O)[C@@H](CC(C)C)NC(=O)[C@@H](CCCCN)NC(=O)[C@@H](CCCCN)NC(=O)[C@@H](Cc1ccccc1)NC(=O)[C@@H](CCCCN)NC(=O)[C@@H](CCCCN)NC(=O)[C@@H](CCCNC(=N)N)NC(=O)[C@@H](Cc1ccccc1)NC(=O)[C@@H](CCCNC(=N)N)NC(=O)[C@@H](CCCCN)NC(=O)[C@@H](Cc1ccccc1)NC(=O)[C@@H](CCCNC(=N)N)NC(=O)CN)C(=O)N[C@H](CO)C(N)=O` [D-BMAP18] (H-G[dR][dF][dK][dR][dF][dR][dK][dK][dF][dK][dK][dL][dF][dK][dK][dL][dS]-NH2), the MIC (S. aureus SA1) is reported as >32 µg/mL, the MIC90 (S. maltophilia) is reported as 16 µg/mL (≈ 6.83 µM) and the MIC (S. aureus SA5) is reported as >32 µg/mL. The MIC (S. aureus SA7) was >32 µg/mL, the MIC (S. aureus SA3) was >32 µg/mL and the MIC (S. aureus SA4) was >32 µg/mL. The MIC (S. aureus SA2) was >32 µg/mL, the “trend between dose and macroscopic lung damage” value (P. aeruginosa RP73 [1]) was “not statistically significant” and the MIC (P. aeruginosa PA14; [3]) was 16 µg/mL (≈ 6.83 µM). The MBC (P. aeruginosa PA14; [4]) was 32 µg/mL (≈ 13.7 µM), the MIC (P. aeruginosa PA03; [3]) was 8 µg/mL (≈ 3.42 µM) and the MBC (P. aeruginosa PA03; [4]) was 8 µg/mL (≈ 3.42 µM). The MIC (P. aeruginosa PA08; [3]) was 8 µg/mL (≈ 3.42 µM), the MBC (P. aeruginosa PA08; [4]) was 16 µg/mL (≈ 6.83 µM) and the MIC (P. aeruginosa PA21; [3]) was 16 µg/mL (≈ 6.83 µM). For the same compound, the MBC (P. aeruginosa PA21; [4]) was 32 µg/mL (≈ 13.7 µM), the MIC (P. aeruginosa RP73 [2]; [3]) was 4 µg/mL (≈ 1.71 µM) and the MBC (P. aeruginosa RP73 [2]; [4]) was 8 µg/mL (≈ 3.42 µM). The MIC (P. aeruginosa PA22; [3]) was 4 µg/mL (≈ 1.71 µM), the MBC (P. aeruginosa PA22; [4]) was 32 µg/mL (≈ 13.7 µM) and the MIC (P. aeruginosa PA09; [3]) was 16 µg/mL (≈ 6.83 µM). For the same compound, the MBC (P. aeruginosa PA09; [4]) was 32 µg/mL (≈ 13.7 µM), the MIC (P. aeruginosa PA31; [3]) was 16 µg/mL (≈ 6.83 µM) and the MBC (P. aeruginosa PA31; [4]) was 32 µg/mL (≈ 13.7 µM). For the same compound, the MIC (P. aeruginosa PA01; [3]) was 8 µg/mL (≈ 3.42 µM), the MBC (P. aeruginosa PA01; [4]) was 32 µg/mL (≈ 13.7 µM) and the MIC (P. aeruginosa PA05; [3]) was 4 µg/mL (≈ 1.71 µM). For the same compound, the MBC (P. aeruginosa PA05; [4]) was 8 µg/mL (≈ 3.42 µM), the MIC (P. aeruginosa PA07; [3]) was 8 µg/mL (≈ 3.42 µM) and the MBC (P. aeruginosa PA07; [4]) was 8 µg/mL (≈ 3.42 µM). It also gave an MIC (P. aeruginosa PA10; [3]) of 16 µg/mL (≈ 6.83 µM) and an MBC (P. aeruginosa PA10; [4]) of 32 µg/mL (≈ 13.7 µM).
